The subject of assay [1] is HT-29 colon adenocarcinoma cells. The assay can be described thus: Growth of HT-29 cells, viable cell count. It counts as cell-based, human. Conditions: viable cell count 5 days after plating. Here is the method: (§1) For these assays 2×10^4 cells are plated in 24 well multiwell tissue culture dishes, in 1 ml of DME/F12 media supplemented with 5% fetal bovine serum. After 24 h, media is replaced with fresh media containing the concentration of inhibitor to be tested, or no inhibitor as a control. Cells are counted 1, 3, and 5 days subsequent to addition of inhibitor. For the day 5 counts, media with fresh inhibitor is used to replace spent media after day 3. […] For counting viable cells, cultures are trypsinized, stained with trypan blue, and cell number determined by counting under light microscopy with the use of a hemacytometer. Benzodiazepine derivatives were tested at their maximally soluble concentrations in 0.1% DMSO diluted with tissue culture medium, and serial dilutions were made thereof. Every concentration tested was performed in triplicate, in identical wells under identical assay conditions.

Assay [2] deals with AFB-13 normal human fibroblasts. Briefly: Growth of AFB-13 cells, control for cellular toxicity. The format is cell-based. As for the experimental part:
as §1

For a further assay, the target named is protein kinase A (PKA) (Homo sapiens, UniProt P17612). Briefly: Enzyme panel: protein kinase A. The format is biochemical.
For a further assay, the target named is T1, Csk (C-Src kinase) (Homo sapiens, UniProt P41240).
T1 construct: glutathione-S-transferase (GST) (N); made in house; host or cells: E. coli
T1 sequence (P41240 whole entry): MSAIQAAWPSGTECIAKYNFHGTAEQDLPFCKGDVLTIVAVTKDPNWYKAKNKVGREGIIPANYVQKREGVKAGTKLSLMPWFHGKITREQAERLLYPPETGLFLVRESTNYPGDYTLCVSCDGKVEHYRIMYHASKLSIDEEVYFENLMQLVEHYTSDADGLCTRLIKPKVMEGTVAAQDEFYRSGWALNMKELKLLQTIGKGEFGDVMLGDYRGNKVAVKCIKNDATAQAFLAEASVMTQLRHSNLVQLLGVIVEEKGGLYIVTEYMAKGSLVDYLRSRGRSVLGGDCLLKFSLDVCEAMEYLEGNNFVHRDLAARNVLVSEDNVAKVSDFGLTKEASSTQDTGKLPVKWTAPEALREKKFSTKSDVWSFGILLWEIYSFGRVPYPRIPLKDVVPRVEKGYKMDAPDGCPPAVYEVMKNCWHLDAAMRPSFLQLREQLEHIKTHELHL
The assay can be described thus: Csk tyrosine kinase activity, poly E4Y and 32P-ATP. The format is biochemical. From the text:
(§2) The genes encoding Csk, Lck, Abl, and the FGF receptor have all been cloned. The genes encoding Csk, Abl, and the FGF receptor were cloned from humans, and the genes encoding Lck were cloned from a mouse. Recombinant Csk, Lck, Abl, and the FGFr were expressed as glutathione-S-transferase fusion proteins using the pGEX expression vector and E. coli, and purified as described (Sun et al., 1995).
(§3) Recombinant Src was expressed using the baculovirus-insect cell system and purified as published (Budde et al, 1993). Recombinant Csk, Lck, Abl, and the FGFr were expressed as glutathione-S-transferase fusion proteins using the pGEX expression vector and E. coli, and purified as described (Sun and Budde, 1995).
(§4) The tyrosine kinase activity of Src, Lck (p56^lck), Csk (C-Src kinase), Abl (Bcr-Abl catalytic domain), and the FGFr (fibroblast growth factor receptor catalytic domain), was determined using poly E4 Y and ^32 P-ATP.

A further assay has as its target T2, Src (Homo sapiens, UniProt P12931).
T2 construct: made in house; host or cells: baculovirus-insect cell system
The assay can be described thus: Src tyrosine kinase activity, poly E4Y and 32P-ATP. The format is biochemical. Conditions: for Ki: Table 10, benzodiazepines as inhibitors of Src. As for the experimental part: The compounds within the library were screened at a concentration of 100 μM using the following assay procedure. A 10 μL aliquot of poly(Glu:Tyr, 4:1) to final concentration of 200 μg/mL, 20 μL of benzodiazepine to be tested, 10 μL of purified Src and 10 μL of [gamma-^32 P]-ATP-MgCl2 cocktail (final concentration of 0.2 mM ATP; specific activity of 600 dpm/pmol, and 6 mM MgCl2) were mixed and incubated in 0.5 mL test tubes at ambient temperature. After 30 min, a 35 μL aliquot was spotted onto a 1×1 inch 3 MM filter paper and dropped into a 5% TCA bath at 60° C. The filter papers were washed 3 times with 5% TCA and air dried. The filter papers were then placed into a vial, 3 mL scintillation cocktail added, and analyzed by liquid scintillation counting.
as §4

A further assay deals with Yes (Homo sapiens, UniProt P07947). Briefly: Enzyme panel: Yes. Conditions: apparent value against variable poly E4Y. The format is biochemical.
Chain of Yes (P07947 whole entry, species assumed): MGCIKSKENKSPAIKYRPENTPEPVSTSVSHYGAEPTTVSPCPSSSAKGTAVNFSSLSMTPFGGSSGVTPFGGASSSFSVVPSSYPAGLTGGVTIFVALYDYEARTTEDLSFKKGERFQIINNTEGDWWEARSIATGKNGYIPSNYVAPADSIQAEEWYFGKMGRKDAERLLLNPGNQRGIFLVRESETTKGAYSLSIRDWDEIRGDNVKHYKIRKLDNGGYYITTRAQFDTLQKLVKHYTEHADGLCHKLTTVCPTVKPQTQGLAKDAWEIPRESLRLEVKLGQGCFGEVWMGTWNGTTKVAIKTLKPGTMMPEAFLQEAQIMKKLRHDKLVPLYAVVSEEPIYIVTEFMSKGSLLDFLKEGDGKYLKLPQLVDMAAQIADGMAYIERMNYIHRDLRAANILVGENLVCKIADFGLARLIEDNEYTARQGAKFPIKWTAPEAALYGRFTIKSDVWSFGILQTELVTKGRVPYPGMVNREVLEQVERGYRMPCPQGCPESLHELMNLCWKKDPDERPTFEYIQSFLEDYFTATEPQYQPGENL
Assay [3] has as its system HT-29 colon adenocarcinoma cells. The assay can be described thus: Anchorage-independent growth, soft agar colony formation. It counts as cell-based, human. As for the experimental part:
Soft agar colony formation is used to determine anchorage independent growth, an in vitro parameter which correlates well with tumorigenicity of HT 29 cells. (AFB-13 cells are unable to form soft agar colonies, a characteristic of normal cells). These assays are performed in 6 well ([…]) multiwell tissue culture dishes. The wells are underlayed with 1% low melting agarose in complete growth media, and refrigerated for 15 min. 1×10^3 HT 29 cells are then added to the wells in complete media in 0.5% low melting agarose. […] After a 24 h incubation period, 0.5 mL of media containing compound to be tested (or media alone as a control) is added to the dish. During the assay, media with or without the test compound is replenished every 3 days. Colonies estimated to contain >100 cells are counted after 14 days. For compounds that induce growth inhibition, the assay is continued to 28 days to assure that differences in colony forming ability were not due to altered growth rate of cells. For initial screening, assays are performed in duplicate for each compound to be tested, due to the large amount of inhibitor required for the length of the study.

A further assay deals with T3, Lck (p56^lck) (Mus musculus, UniProt P06240).
T3 construct: glutathione-S-transferase (GST) (N); made in house; host or cells: E. coli
T3 sequence (P06240 whole entry): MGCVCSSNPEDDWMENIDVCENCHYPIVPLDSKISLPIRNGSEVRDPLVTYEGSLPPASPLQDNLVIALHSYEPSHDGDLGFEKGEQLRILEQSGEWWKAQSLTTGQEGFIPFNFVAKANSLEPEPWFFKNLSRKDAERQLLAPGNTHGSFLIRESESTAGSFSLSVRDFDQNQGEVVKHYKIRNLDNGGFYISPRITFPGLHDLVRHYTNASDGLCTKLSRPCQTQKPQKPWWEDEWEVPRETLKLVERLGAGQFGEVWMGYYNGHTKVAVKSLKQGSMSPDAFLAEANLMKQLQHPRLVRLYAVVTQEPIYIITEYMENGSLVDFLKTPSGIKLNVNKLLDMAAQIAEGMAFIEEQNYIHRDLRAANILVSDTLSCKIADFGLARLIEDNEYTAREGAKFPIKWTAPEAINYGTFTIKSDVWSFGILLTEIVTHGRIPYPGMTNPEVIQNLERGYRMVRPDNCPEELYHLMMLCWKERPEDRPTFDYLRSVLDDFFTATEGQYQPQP
Briefly: Lck tyrosine kinase activity, poly E4Y and 32P-ATP. It counts as biochemical.
From the text: as §2, §3, §4

Another assay concerns the target hexokinase (HXK). Briefly: Enzyme panel: hexokinase. The format is biochemical.
The target in assay [4] is FGFr (fibroblast growth factor receptor catalytic domain). The assay can be described thus: FGFr tyrosine kinase activity, poly E4Y and 32P-ATP. The format is biochemical, human.
From the text: as §2, §3, §4

Assay [5] concerns the target T4, Abl (Bcr-Abl catalytic domain) (Homo sapiens, UniProt P00519).
T4 construct: Abl (Bcr-Abl catalytic domain); glutathione-S-transferase (GST) (N); made in house; host or cells: E. coli
T4 sequence (P00519 242-493 limits assumed): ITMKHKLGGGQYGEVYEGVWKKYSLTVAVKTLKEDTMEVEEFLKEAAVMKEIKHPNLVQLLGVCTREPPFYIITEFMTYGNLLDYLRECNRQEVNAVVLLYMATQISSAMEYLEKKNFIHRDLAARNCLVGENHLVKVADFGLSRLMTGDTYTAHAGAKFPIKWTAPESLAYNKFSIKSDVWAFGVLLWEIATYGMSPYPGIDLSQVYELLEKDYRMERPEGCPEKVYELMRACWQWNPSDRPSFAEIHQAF
The assay can be described thus: Abl tyrosine kinase activity, poly E4Y and 32P-ATP. It counts as biochemical.
From the text: as §2, §3, §4

Where [6] appears, read: Homo sapiens, Fibroblast, 120 h, viable cell count 5 days after plating.
[7] abbreviates: Homo sapiens, HT-29, 336 h, colonies ≥100 cells 14 days after plating.

T2 sequence (P12931 whole entry, species assumed): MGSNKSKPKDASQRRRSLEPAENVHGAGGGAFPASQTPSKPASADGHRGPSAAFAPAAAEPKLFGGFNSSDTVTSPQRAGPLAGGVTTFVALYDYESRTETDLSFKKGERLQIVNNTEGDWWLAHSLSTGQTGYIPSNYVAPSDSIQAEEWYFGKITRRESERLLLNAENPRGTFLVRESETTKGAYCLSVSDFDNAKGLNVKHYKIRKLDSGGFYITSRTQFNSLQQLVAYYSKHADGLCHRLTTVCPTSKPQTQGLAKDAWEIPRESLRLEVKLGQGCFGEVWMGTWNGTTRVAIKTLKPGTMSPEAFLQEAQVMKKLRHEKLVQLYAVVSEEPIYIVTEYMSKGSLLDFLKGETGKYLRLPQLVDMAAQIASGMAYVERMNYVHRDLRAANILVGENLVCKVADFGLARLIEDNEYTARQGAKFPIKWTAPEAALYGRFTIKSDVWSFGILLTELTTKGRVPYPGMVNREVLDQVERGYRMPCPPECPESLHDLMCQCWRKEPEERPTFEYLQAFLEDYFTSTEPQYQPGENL

The term IC50 denotes the concentration that inhibits the measured activity by half. With `O=C1[C@H](Cc2ccc(O)cc2)N=C(c2ccc(O)cc2)c2cc(Cl)ccc2N1Cc1ccc(-c2ccccc2)cc1` [L-Tyr,BnzPh, 7-chloro-1,3-dihydro-1-(-4-biphenylmethyl)-3-(-4-hydroxyphenylmethyl)-5-(4-hydroxyphenyl)-(2H)1,4-benzodiazepin-2-one], the “HT-29 Growth” value in assay [1] (28 μM) is given as “cytotoxic”. The activity at 3 µM in assay [1] (Homo sapiens, HT-29, 120 h) turned out to be 100 ± 10%; in [2] (setting [6]), 89 ± 6%; in assay [3] (setting [7]) it was 29%. The activity at 14 µM in assay [1] (Homo sapiens, HT-29, 120 h, 14 μM) was determined as 98 ± 9%; in assay [2] (Homo sapiens, Fibroblast, 120 h, 14 μM, viable cell count 5 days after plating), 97 ± 5%; in assay [3] (Homo sapiens, HT-29, 336 h, 14 μM, colonies ≥100 cells 14 days after plating), 8%. The activity at 28 µM is 90 ± 4% in assay [2] (Homo sapiens, Fibroblast, 120 h, 28 μM, viable cell count 5 days after plating) and 0% in assay [3] (Homo sapiens, HT-29, 336 h, 28 μM, colonies ≥100 cells 14 days after plating). The “inhibition of growth of AFB-13 normal fibroblasts” value in [2] (same concentrations (up to 28 μM)) is given as “Less than 10%”. Also, the IC50 was found to be 450 µM at protein kinase A (PKA), 136 µM against Csk (C-Src kinase), 73 µM on Src and 505 µM on Lck (p56^lck). The Ki on protein kinase A (PKA) (apparent value) is 104 µM; on Csk (C-Src kinase) (apparent value against variable poly E4Y), 63 µM; at Src, 20 µM; at Yes, 50 µM. On Src (against variable ATP or variable poly E4Y), the mode of inhibition result is “mixed”. The “inhibition of colony formation of HT-29 colon adenocarcinoma cells” value in assay [3] (28 μM) was “complete inhibition”.

For the molecule `O=C1[C@H](Cc2ccc(O)cc2)N=C(c2ccc(O)cc2)c2cc(Cl)ccc2N1Cc1ccccc1` [L-Tyr,Bnz], the IC50 against hexokinase (HXK) was 352 µM; against protein kinase A (PKA), 124 µM; on Csk (C-Src kinase), 404 µM; on Src it was 190 µM; in assay [4], 418 µM; at Lck (p56^lck) it was 570 µM. In assay [5], this molecule returned an IC50 of 931 µM. The activity at 3 µM in assay [1] (Homo sapiens, HT-29, 120 h) was 100 ± 3%; in [2] (setting [6]), 100 ± 4%; in assay [3] (setting [7]) it was 52%. Moreover, the activity at 15 µM was 84 ± 6% in assay [1] (Homo sapiens, HT-29, 120 h, 15 μM); 92 ± 6% in assay [2] (Homo sapiens, Fibroblast, 120 h, 15 μM, viable cell count 5 days after plating); 11% in assay [3] (Homo sapiens, HT-29, 336 h, 15 μM, colonies ≥100 cells 14 days after plating). Further, the activity at 30 µM was determined as 73 ± 9% in assay [1] (Homo sapiens, HT-29, 120 h, 30 μM); 92 ± 8% in assay [2] (Homo sapiens, Fibroblast, 120 h, 30 μM, viable cell count 5 days after plating); 0% in assay [3] (Homo sapiens, HT-29, 336 h, 30 μM, colonies ≥100 cells 14 days after plating). The “inhibition of growth of AFB-13 normal fibroblasts” value in assay [2] (same concentrations (up to 30 μM)) is reported as “no inhibition”. Also, on Src, the Ki was 74 µM. Besides, in assay [3] (30 μM), the “inhibition of colony formation of HT-29 colon adenocarcinoma cells” value is reported as “complete inhibition”.

The values are drawn from US6100254A, “Inhibitors of protein tyrosine kinases” (Board of Regents, The University of Texas System, priority 1997, dated 2000).
